PubChem BioAssay AID1845212 (Molecular Pharmacology Branch, DTP, NCI, 2023)
Where “and” joins values, the source holds several entries; their conditions need not be identical. Equal values may be shown once.

Tested on: NCI-H719 tumor spheroids, viability
Assay: Anticancer human tumor NCI-H719 cell line growth inhibition;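 further: spheroids exposed to compounds for seven days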;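 on viability, T/C: percent viability relative to DMSO vehicle control as 100%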
Conditions: spheroids with HUVEC and MSC; for viability, T/C: stronger effect = lower value
Method in brief: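 Complex spheroids of malignant cells with endothelial cells and mesenchymal stem cells; agents alone or combined, from near clinical Cmax (or 10 microM if unknown) down in half-log steps, 0.25% DMSO final.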

[1] = curve of first compound, second compound 0.003 µM
[2] = curve of first compound, second compound 0.00949 µM
[3] = curve of first compound, second compound 0.03 µM
[4] = curve of first compound, second compound 0.0949 µM
[5] = curve of first compound, second compound 0.3 µM

CC1COCCN1c1cc(-c2ccnn2C)c2ccnc(-c3ccn[nH]3)c2n1 (stereo unspecified) + CC[C@@]1(O)C(=O)OCc2c1cc1n(c2=O)Cc2cc3c(CN(C)C)c(O)ccc3nc2-1
IC50 [1]: < 31.6 nM
IC50 [2]: < 31.6 nM
IC50 [3]: < 31.6 nM
IC50 [4]: < 31.6 nM
IC50 [5]: < 31.6 nM
viability, T/C (second compound 0.003 µM, first compound 0.0316 µM): 14.9%
viability, T/C (second compound 0.003 µM, first compound 0.1 µM): 7.36%
viability, T/C (second compound 0.003 µM, first compound 0.316 µM): 5.05%
viability, T/C (second compound 0.003 µM, first compound 1 µM): 5.69%
viability, T/C (second compound 0.003 µM, first compound 3.16 µM): 5.95%
viability, T/C (second compound 0.003 µM, first compound 10 µM): 7.37%
viability, T/C (second compound 0.00949 µM, first compound 0.0316 µM): 5.44%
viability, T/C (second compound 0.00949 µM, first compound 0.1 µM): 4.76%
viability, T/C (second compound 0.00949 µM, first compound 0.316 µM): 5.26%
viability, T/C (second compound 0.00949 µM, first compound 1 µM): 4.81%
viability, T/C (second compound 0.00949 µM, first compound 3.16 µM): 5.91%
viability, T/C (second compound 0.00949 µM, first compound 10 µM): 7.24%
viability, T/C (second compound 0.03 µM, first compound 0.0316 µM): 5.59%
viability, T/C (second compound 0.03 µM, first compound 0.1 µM): 5.35%
viability, T/C (second compound 0.03 µM, first compound 0.316 µM): 4.66%
viability, T/C (second compound 0.03 µM, first compound 1 µM): 4.18%
viability, T/C (second compound 0.03 µM, first compound 3.16 µM): 5.76%
viability, T/C (second compound 0.03 µM, first compound 10 µM): 7.48%
viability, T/C (second compound 0.0949 µM, first compound 0.0316 µM): 5.89%
viability, T/C (second compound 0.0949 µM, first compound 0.1 µM): 5.72%
viability, T/C (second compound 0.0949 µM, first compound 0.316 µM): 4.2%
viability, T/C (second compound 0.0949 µM, first compound 1 µM): 3.96%
viability, T/C (second compound 0.0949 µM, first compound 3.16 µM): 3.73%
viability, T/C (second compound 0.0949 µM, first compound 10 µM): 3.78%
viability, T/C (second compound 0.3 µM, first compound 0.0316 µM): 5.64%
viability, T/C (second compound 0.3 µM, first compound 0.1 µM): 5.76%
viability, T/C (second compound 0.3 µM, first compound 0.316 µM): 5.49%
viability, T/C (second compound 0.3 µM, first compound 1 µM): 2.94%
viability, T/C (second compound 0.3 µM, first compound 3.16 µM): 2.15%
viability, T/C (second compound 0.3 µM, first compound 10 µM): 2.17%

O=C(c1cc(Cc2n[nH]c(=O)c3ccccc23)ccc1F)N1CCN(C(=O)C2CC2)CC1
viability, T/C (compound 0.0949 µM): 90.1% and 105% and 85.6%
viability, T/C (compound 0.3 µM): 61.4% and 93.6% and 95.1%
viability, T/C (compound 0.949 µM): 71.1% and 82% and 81.4%
viability, T/C (compound 3 µM): 51.2% and 34.2% and 52.1%
viability, T/C (compound 9.49 µM): 30.8% and 7.1% and 16.9%
IC50 (curve of compound): 3090 nM and 2030 nM and 3150 nM

O=C(c1cc(Cc2n[nH]c(=O)c3ccccc23)ccc1F)N1CCN(C(=O)C2CC2)CC1 + CC[C@@]1(O)C(=O)OCc2c1cc1n(c2=O)Cc2cc3c(CN(C)C)c(O)ccc3nc2-1
IC50 [1]: < 94.9 nM
IC50 [2]: < 94.9 nM
IC50 [3]: < 94.9 nM
IC50 [4]: < 94.9 nM
IC50 [5]: < 94.9 nM
viability, T/C (second compound 0.003 µM, first compound 0.0949 µM): 8.96%
viability, T/C (second compound 0.003 µM, first compound 0.3 µM): 7.42%
viability, T/C (second compound 0.003 µM, first compound 0.949 µM): 6.71%
viability, T/C (second compound 0.003 µM, first compound 3 µM): 6.81%
viability, T/C (second compound 0.003 µM, first compound 9.49 µM): 5.81%
viability, T/C (second compound 0.003 µM, first compound 30 µM): 4.97%
viability, T/C (second compound 0.00949 µM, first compound 0.0949 µM): 6.26%
viability, T/C (second compound 0.00949 µM, first compound 0.3 µM): 5.9%
viability, T/C (second compound 0.00949 µM, first compound 0.949 µM): 6.11%
viability, T/C (second compound 0.00949 µM, first compound 3 µM): 5.87%
viability, T/C (second compound 0.00949 µM, first compound 9.49 µM): 5.83%
viability, T/C (second compound 0.00949 µM, first compound 30 µM): 5.35%
viability, T/C (second compound 0.03 µM, first compound 0.0949 µM): 5.59%
viability, T/C (second compound 0.03 µM, first compound 0.3 µM): 5.66%
viability, T/C (second compound 0.03 µM, first compound 0.949 µM): 6.11%
viability, T/C (second compound 0.03 µM, first compound 3 µM): 5.5%
viability, T/C (second compound 0.03 µM, first compound 9.49 µM): 5.9%
viability, T/C (second compound 0.03 µM, first compound 30 µM): 5.66%
viability, T/C (second compound 0.0949 µM, first compound 0.0949 µM): 5.78%
viability, T/C (second compound 0.0949 µM, first compound 0.3 µM): 5.76%
viability, T/C (second compound 0.0949 µM, first compound 0.949 µM): 5.69%
viability, T/C (second compound 0.0949 µM, first compound 3 µM): 5.69%
viability, T/C (second compound 0.0949 µM, first compound 9.49 µM): 5.97%
viability, T/C (second compound 0.0949 µM, first compound 30 µM): 5.61%
viability, T/C (second compound 0.3 µM, first compound 0.0949 µM): 5.43%
viability, T/C (second compound 0.3 µM, first compound 0.3 µM): 5.79%
viability, T/C (second compound 0.3 µM, first compound 0.949 µM): 6.36%
viability, T/C (second compound 0.3 µM, first compound 3 µM): 5.43%
viability, T/C (second compound 0.3 µM, first compound 9.49 µM): 5.25%
viability, T/C (second compound 0.3 µM, first compound 30 µM): 4.62%
